This is an account of results in patent US20230159436A1, “APPLICATIONS OF AMIDE ANALOGS OF TRITERPENES IN CURES OF CANCER AND OTHER DISEASES” (Pacific Arrow Limited, priority 2021, published 2023).

Data set [1] relates to MCF-7. Kind of data set: MTT assay, breast (MCF-7). The class given is cell-based. The procedure:
(§1) Cells. HTB-9 (bladder), HeLa-S3 (cervix), DU145 (prostate), H460 (lung), MCF-7 (breast), K562 (leukemia), HCT116 (colon), HepG2 (liver), U2OS (bone), T98G (brain), SK-MEL-5 (Skin) and OVCAR 3, ES2 (ovary), Pancreas (Capan), Mouth (KB), Kidney (A498).
(§2) MTT Assay. The procedure for MTT assay followed the method described by Carmichael et al. (1987) with modifications. The cells were seeded into a 96-well plate at for 24 hours before drug-treatment. The cells were then exposed to the drugs for 48, 72, or 96 hours. After the drug-treatment, MTT (0.5 mg/mL) was added to cultures and incubated for an hour. The formazan (product of the reduction of tetrazolium by viable cells) formed and was dissolved with DMSO and the O.D. at 490 nm, and was measured by an ELISA reader. The MTT level of the cells before drug-treatment was also measured (T0). The % cell-growth (% G) is calculated as: % G=(TD−T0/TC−T0)×100(1), where TC or TD represents O.D. readings of control or drug-treated cells.
(§3) When T0>TD, then the cytotoxicity (LC) expressed as % of the control is calculated as: % LC=(TD−T0/T0)×100(2).

Data set [2] deals with U2OS. Description: MTT assay, bone (U2OS). The class given is cell-based. The procedure: as §1, §2, §3
A general note: Formazan colour is commonly taken as a measure of viable cells.

Data set [3] relates to SK-Mel-5. Kind of data set: MTT assay, skin (SK-Mel-5). The class given is cell-based. The procedure:
as §1, §2, §3

Data set [4] concerns K562. Kind of data set: MTT assay, leukemia (K562). The class given is cell-based, human. The procedure: as §1, §2, §3
Data set [5] concerns Swiss3T3 cells. Kind of data set: Cytotoxicity determination in Swiss3T3 normal fibroblast. The class given is cell-based. The conditions noted are these: mouse normal fibroblast; preliminary results. The procedure:
as §2

Data set [6] concerns DU145. Description: MTT assay, prostate (DU145). The class given is cell-based. The procedure:
as §1, §2, §3

The test system of data set [7] is T98G. Description: MTT assay, brain (T98G). The class given is cell-based. The procedure:
as §1, §2, §3

For data set [8], the system named is HeLa. Description: MTT assay, cervix (HeLa). The class given is cell-based. The procedure:
as §1, §2, §3

The nature of data set [9]: Pharmacokinetic (PK) study: blood from cutting tail. The class given is in vivo, mice. The conditions noted are these: IP 100 mg/kg, estimated. The procedure:
Pharmacokinetic (PK) Study: Blood from Cutting Tail • Method: • Drug-Treatment: • Mice: CD-1 female mice (6-7 weeks, 23-25 g) • mice were injected (IP) with Test drug sample (10 mg/ml, in […] at a dose of 100 mg/kg. • Blood was obtained from a mouse by cut-tail at 0.5, 2 and 4 hours after drug treatments. • At 24 hours after the drug treatment, mice were anesthetized with isoflurane and blood was obtained with cardiac puncture. Animals were then euthanized by cervical dislocation. • Plasma Isolation: • Blood (50-100 ul) was centrifuged (2000 g, 15 minutes). Plasma was collected from the top layer. • 1 volume of plasma was mixed with 3 volume of acetonitrile/0.005% TFA. Mixture was stored in refrigerator overnight. • Sample was centrifuged (16000 g,10 minutes). Supernatant (called Plasma in 75% AN/TFA soluble fractions) was collected and subjected to HPLC analysis. • HPLC Analysis Conditions: • Column: C18 μBondapak • Solvent: 60% acetonitrile/0.005% TFA (Trifluoroacetic acid) • Gradient: isocratic • Flow rate and run time: 1 ml/min for 30 minutes • Detection wavelength: 207 nm • O.D. range: 0.05 full scale • Calculation: • Standard cures of Test Drug is constructed (Area/3000K=1 ug Test Drug) • Area of Test Drug Peak from Sample is Recorded • Amount of Test Drug was calculated according to standard cures.

With `CC=C(C)C(=O)OCC1(C)C(O)CCC2(C)C1CCC1(C)C2CC=C2C3CC(C)(C)C(O)C(O)C3(COC(=O)C(C)=CC)C(O)CC21C` (stereo not drawn) [Tig-R, 24,28-O-Tigloyl-3β,16α,21β,22α,24β,28-hexahydroxyolean-12-ene], the “IC50 of breast (MCF-7)” value in [1] was 4.5 µg/mL. Also, in [2], the “IC50 of bone (U2OS)” value came out at 4.5 µg/mL. Besides, in [3], the “IC50 of skin (SK-Mel-5)” value amounted to 5.1 µg/mL. The “IC50 of leukemia (K562)” value in data set [4] was determined as 2 µg/mL. In addition, the “IC50 in SW3T3 cells” value in data set [5] is “above 20 ug/ml”. Further, in data set [6], the “IC50 of prostate (DU145)” value came out at 3.6 µg/mL. In addition, the “IC50 of brain (T98G)” value in data set [7] was found to be 8 µg/mL. The “IC50 of cervix (HeLa)” value in data set [8] stood at 5 µg/mL. Further, the half-life entry in [9] is listed as “about one”.
